Key:
[1] = test system: Eschericia coli (E. coli) strain ATCC25922; assay: Standard microdilution assay, MIC against E. coli ATCC25922; assay type: cell-based; conditions: Escherichia coli; E. coli strain ATCC25922, standard microdilution assay; cutoff 16 micrograms/mL; read-out: MIC E. Coli
Method in brief: (§1)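 MIC determined by broth microdilution following CLSI protocols, with reference strains run in parallel for quality control. Activity scored +/− at a cutoff of 16 micrograms/mL.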

[2] = test system: Staphylococcus aureus (S. aureus) 11540 strain; assay: Standard microdilution assay, MIC against S. aureus 11540; assay type: cell-based; conditions: S. aureus 11540 strain, standard microdilution assay, cutoff 16 micrograms/mL, read-out: MIC S. aureus
Method in brief: as §1

| SMILES | MIC [1] | MIC [2] |
| --- | --- | --- |
| CNC(=O)CC[C@@H]1CCC[C@@H](c2ccc(-n3cc4cc(-c5cc(CCC[C@H](C)N)cc(Cl)c5F)[nH]c4nc3=O)cc2)N1 [Compound 513] | > 16 µg/mL | > 16 µg/mL |
| C[C@H](N)CCCc1cc(Cl)c(F)c(-c2cc3cn(-c4ccc([C@@H]5COC[C@H](CCN)N5)cc4)c(=O)nc3[nH]2)c1 [Compound 385] | < 16 µg/mL | < 16 µg/mL |
| C[C@@H](CN)CN1CC[C@@H](c2cc3cn(-c4ccc(C(=N)NCC[C@H](C)N)cc4)c(=O)nc3[nH]2)C1 [Compound 581] | < 16 µg/mL | < 16 µg/mL |
| COCC[C@H](CCN[C@@H](C)c1ccc(-n2cc3cc(-c4cc(CCC[C@H](C)N)cc(OC(F)(F)F)c4F)[nH]c3nc2=O)cc1)NC(=N)N [Compound 350] | < 16 µg/mL | < 16 µg/mL |
| C[C@H](N)CCN1CC[C@@H](c2cc3cn(-c4ccc(CNCCCNC(=N)N)cc4)c(=O)nc3[nH]2)C1 [Compound 572] | < 16 µg/mL | < 16 µg/mL |
| C[C@H](N)CCCc1cc(OC(F)(F)F)c(F)c(-c2cc3cn(-c4ccc(C(=O)NCCCNC(=N)N)cc4)c(=O)nc3[nH]2)c1 [Compound 461] | < 16 µg/mL | < 16 µg/mL |
| C[C@H](N)CCCc1cc(OC(F)(F)F)c(F)c(-c2cc3cn(-c4ccc(C(O)CNC(=N)N)cc4)c(=O)nc3[nH]2)c1 (stereo partly shown) [Compound 472] | < 16 µg/mL | < 16 µg/mL |
| C[C@H](N)CCCc1cc(OC(F)(F)F)c(F)c(-c2cc3cn(-c4ccc(C5=NCCCN5)cc4)c(=O)nc3[nH]2)c1 [Compound 565] | < 16 µg/mL | < 16 µg/mL |
| C=C[C@@H](CCNC(=N)N)NCc1ccc(-n2cc3cc(-c4cc(CCC[C@@H](N)CO)cc(Cl)c4F)[nH]c3nc2=O)cc1 [Compound 395] | < 16 µg/mL | < 16 µg/mL |
| N=C(N)NCC[C@@H]1CCC[C@@H](c2ccc(-n3cc4cc(-c5ccc(S(=O)(=O)NC6CCNCC6)cc5)[nH]c4nc3=O)cc2)N1 [Compound 492] | < 16 µg/mL | < 16 µg/mL |
| C=C[C@H](CCNC(=N)N)N[C@@H](C)c1ccc(-n2cc3cc(-c4cc(CCC[C@H](C)N)cc(Cl)c4F)[nH]c3nc2=O)cc1 [Compound 382] | < 16 µg/mL | < 16 µg/mL |
| CC#C[C@@H](CCNC(=N)N)NCc1ccc(-n2cc3cc(-c4cc(CCC[C@H](C)N)cc(Cl)c4F)[nH]c3nc2=O)cc1 [Compound 507] | < 16 µg/mL | < 16 µg/mL |

More lines, now with the values ahead:

| MIC [1] | MIC [2] | SMILES |
| --- | --- | --- |
| < 16 µg/mL | < 16 µg/mL | C[C@H](N)CCCc1cc(OC(F)(F)F)c(F)c(-c2cc3cn(-c4ccc([C@@H]5CCC[C@@H](CCNC(=N)N)N5)cc4)c(=O)nc3[nH]2)c1 [Compound 430] |
| < 16 µg/mL | < 16 µg/mL | C[C@H](N)CCCc1cc(Cl)c(F)c(-c2cc3cn(-c4ccc([C@H]5CCO[C@H](CCNC(=N)N)C5)cc4)c(=O)nc3[nH]2)c1 [Compound 555] |
| < 16 µg/mL | < 16 µg/mL | C[C@H](N)CCCc1cccc(-c2cc3cn(-c4ccc([C@H](C)NCCCNC(=N)N)cc4)c(=O)nc3[nH]2)c1 [Compound 521] |
| < 16 µg/mL | < 16 µg/mL | COC[C@@H](CCNC(=N)N)NCc1ccc(-n2cc3cc(-c4cc(CCC[C@@H](N)CO)cc(Cl)c4F)[nH]c3nc2=O)cc1 [Compound 378] |
| < 16 µg/mL | < 16 µg/mL | N=C(N)N[C@@H](CN)CCNCc1ccc(-n2cc3cc(-c4cc(CCC[C@@H](N)CO)cc(Cl)c4F)[nH]c3nc2=O)cc1 [Compound 399] |
| < 16 µg/mL | < 16 µg/mL | C[C@H](N)CCCc1cc(Cl)c(F)c(-c2cc3cn(-c4ccc([C@@H]5CCO[C@@H](CCCN)C5)cc4)c(=O)nc3[nH]2)c1 [Compound 522] |
| < 16 µg/mL | < 16 µg/mL | C[C@H](N)CCCc1cc(OC(F)(F)F)c(F)c(-c2cc3cn(-c4ccc([C@@H]5CCC[C@H](CCNC(=N)N)N5)cc4)c(=O)nc3[nH]2)c1 [Compound 439] |
| < 16 µg/mL | < 16 µg/mL | C[C@H](N)CCCc1cc(Cl)c(F)c(-c2cc3cn(-c4ccc([C@@H]5CCO[C@@H](CCN)C5)cc4)c(=O)nc3[nH]2)c1 [Compound 525] |
